Measured values reported in ChEMBL document CHEMBL6078657, “Thiazolidinedione-based structure modification of ergosterol peroxide provides thiazolidinedione-conjugated derivatives as potent agents against breast cancer cells through a PI3K/AKT/mTOR pathway” (Bioorg Med Chem, 2025).

Assays:
Format in all cases: functional, cell-based
MCF7 = experiment: Antiproliferative activity against human MCF7 cells assessed as cell viability measured after 48 hrs incubation by MTT assay; conditions: MCF7, 48 h
HepG2 = experiment: Antiproliferative activity against human HepG2 cells assessed as cell viability measured after 48 hrs incubation by MTT assay; conditions: HepG2, 48 h
A549 = experiment: Antiproliferative activity against human A549 cells assessed as cell viability measured after 48 hrs incubation by MTT assay; conditions: A549, 48 h

Row | Compound | IC50 (MCF7) [µM] | IC50 (HepG2) [µM] | IC50 (A549) [µM]
1 | COc1ccc(/C=C2\SC(=O)N(CC(=O)N3CCN(C(=O)O[C@H]4CC[C@]5(C)[C@H]6CC[C@]7(C)[C@@H]([C@H](C)/C=C/[C@H](C)C(C)C)CC[C@H]7[C@@]67C=C[C@]5(C4)OO7)CC3)C2=O)cc1OC | 13.6 | 21.5 | 7.75
2 | CC(C)[C@@H](C)/C=C/[C@@H](C)[C@H]1CC[C@@H]2[C@]1(C)CC[C@H]1[C@]23C=C[C@]2(C[C@@H](OC(=O)NCCNC(=O)CN4C(=O)S/C(=C\c5ccc(F)cc5)C4=O)CC[C@]12C)OO3 | 11.6 | 13.3 | 9.17
3 | COc1ccc(/C=C2/SC(=O)N(CC(=O)O[C@H]3CC[C@]4(C)[C@H]5CC[C@]6(C)[C@@H]([C@H](C)/C=C/[C@H](C)C(C)C)CC[C@H]6[C@@]56C=C[C@]4(C3)OO6)C2=O)cc1 | 18.4 | 10.7 | 9.91
4 | COc1cccc(/C=C2\SC(=O)N(CC(=O)N3CCN(C(=O)O[C@H]4CC[C@]5(C)[C@H]6CC[C@]7(C)[C@@H]([C@H](C)/C=C/[C@H](C)C(C)C)CC[C@H]7[C@@]67C=C[C@]5(C4)OO7)CC3)C2=O)c1 | 14.3 | 12.7 | 10.1
5 | CC(C)[C@@H](C)/C=C/[C@@H](C)[C@H]1CC[C@@H]2[C@]1(C)CC[C@H]1[C@]23C=C[C@]2(C[C@@H](OC(=O)N4CCN(C(=O)CN5C(=O)S/C(=C\c6ccc(F)c(Cl)c6)C5=O)CC4)CC[C@]12C)OO3 | 15.2 | 13.7 | 12.5
6 | CC(C)[C@@H](C)/C=C/[C@@H](C)[C@H]1CC[C@@H]2[C@]1(C)CC[C@H]1[C@]23C=C[C@]2(C[C@@H](OC(=O)N4CCN(C(=O)CN5C(=O)S/C(=C\C6CC6)C5=O)CC4)CC[C@]12C)OO3 | 7.17 | 8.97 | 6.06
7 | COc1ccc(/C=C2\SC(=O)N(CC(=O)N3CCN(C(=O)O[C@H]4CC[C@]5(C)[C@H]6CC[C@]7(C)[C@@H]([C@H](C)/C=C/[C@H](C)C(C)C)CC[C@H]7[C@@]67C=C[C@]5(C4)OO7)CC3)C2=O)cc1 | 13.7 | 8.85 | 6.24
8 | CC(C)[C@@H](C)/C=C/[C@@H](C)[C@H]1CC[C@@H]2[C@]1(C)CC[C@H]1[C@]23C=C[C@]2(C[C@@H](OC(=O)N4CCN(C(=O)CN5C(=O)S/C(=C\c6ccoc6)C5=O)CC4)CC[C@]12C)OO3 | 16.7 | 19.8 | 10.4
9 | COc1ccccc1/C=C1/SC(=O)N(CC(=O)O[C@H]2CC[C@]3(C)[C@H]4CC[C@]5(C)[C@@H]([C@H](C)/C=C/[C@H](C)C(C)C)CC[C@H]5[C@@]45C=C[C@]3(C2)OO5)C1=O | 14.3 | 18.9 | 13.1
10 | COc1ccccc1/C=C1\SC(=O)N(CC(=O)N2CCN(C(=O)O[C@H]3CC[C@]4(C)[C@H]5CC[C@]6(C)[C@@H]([C@H](C)/C=C/[C@H](C)C(C)C)CC[C@H]6[C@@]56C=C[C@]4(C3)OO6)CC2)C1=O | 15.4 | 22.6 | 10.2
11 | CC(C)[C@@H](C)/C=C/[C@@H](C)[C@H]1CC[C@@H]2[C@]1(C)CC[C@H]1[C@]23C=C[C@]2(C[C@@H](OC(=O)CN4C(=O)S/C(=C/c5ccc(C(C)(C)C)cc5)C4=O)CC[C@]12C)OO3 | 9.44 | 15.4 | 8.31
12 | Cc1ccc(/C=C2/SC(=O)N(CC(=O)O[C@H]3CC[C@]4(C)[C@H]5CC[C@]6(C)[C@@H]([C@H](C)/C=C/[C@H](C)C(C)C)CC[C@H]6[C@@]56C=C[C@]4(C3)OO6)C2=O)cc1 | 11.5 | 14.6 | 14.2
13 | COc1ccc(/C=C2\SC(=O)N(CC(=O)N3CCN(C(=O)O[C@H]4CC[C@]5(C)[C@H]6CC[C@]7(C)[C@@H]([C@H](C)/C=C/[C@H](C)C(C)C)CC[C@H]7[C@@]67C=C[C@]5(C4)OO7)CC3)C2=O)c(OC)c1OC | 8.96 | 9.75 | 5.17
14 | CC(C)[C@@H](C)/C=C/[C@@H](C)[C@H]1CC[C@@H]2[C@]1(C)CC[C@H]1[C@]23C=C[C@]2(C[C@@H](OC(=O)N4CCN(C(=O)CN5C(=O)CSC5=O)CC4)CC[C@]12C)OO3 | 6.37 | 8.97 | 4.82
15 | CC(C)[C@@H](C)/C=C/[C@@H](C)[C@H]1CC[C@@H]2[C@]1(C)CC[C@H]1[C@]23C=C[C@]2(C[C@@H](OC(=O)CN4C(=O)S/C(=C/c5ccccc5)C4=O)CC[C@]12C)OO3 | 12.5 | 17.6 | 13.7
16 | CC(C)/C=C1/SC(=O)N(CC(=O)O[C@H]2CC[C@]3(C)[C@H]4CC[C@]5(C)[C@@H]([C@H](C)/C=C/[C@H](C)C(C)C)CC[C@H]5[C@@]45C=C[C@]3(C2)OO5)C1=O | 20.4 | 14.6 | 7.65
17 | CC(C)[C@@H](C)/C=C/[C@@H](C)[C@H]1CC[C@@H]2[C@]1(C)CC[C@H]1[C@]23C=C[C@]2(C[C@@H](OC(=O)CN4C(=O)S/C(=C/c5ccc(F)cc5)C4=O)CC[C@]12C)OO3 | 16.1 | 14.7 | 11.7

Row | Compound | IC50 (MCF7) [µM] | IC50 (HepG2) [µM] | IC50 (A549) [µM]
18 | CC(C)[C@@H](C)/C=C/[C@@H](C)[C@H]1CC[C@@H]2[C@]1(C)CC[C@H]1[C@]23C=C[C@]2(C[C@@H](OC(=O)N4CCN(C(=O)CN5C(=O)S/C(=C\c6ccccc6)C5=O)CC4)CC[C@]12C)OO3 | 8.48 | 9.71 | 6.05
19 | COc1ccc(/C=C2/SC(=O)N(CC(=O)O[C@H]3CC[C@]4(C)[C@H]5CC[C@]6(C)[C@@H]([C@H](C)/C=C/[C@H](C)C(C)C)CC[C@H]6[C@@]56C=C[C@]4(C3)OO6)C2=O)c(OC)c1OC | 9.66 | 10.9 | 9.1
20 | CC(C)[C@@H](C)/C=C/[C@@H](C)[C@H]1CC[C@@H]2[C@]1(C)CC[C@H]1[C@]23C=C[C@]2(C[C@@H](OC(=O)N4CCN(C(=O)CN5C(=O)S/C(=C\c6ccsc6)C5=O)CC4)CC[C@]12C)OO3 | 13.6 | 16.8 | 8.14
21 | CC(C)[C@@H](C)/C=C/[C@@H](C)[C@H]1CC[C@@H]2[C@]1(C)CC[C@H]1[C@]23C=C[C@]2(C[C@@H](OC(=O)N4CCN(C(=O)CN5C(=O)S/C(=C\c6ccc(Br)cc6)C5=O)CC4)CC[C@]12C)OO3 | 10.4 | 12.4 | 5.74
22 | CC(C)[C@@H](C)/C=C/[C@@H](C)[C@H]1CC[C@@H]2[C@]1(C)CC[C@H]1[C@]23C=C[C@]2(C[C@@H](OC(=O)N4CCN(C(=O)CN5C(=O)S/C(=C\c6cccc7ccccc67)C5=O)CC4)CC[C@]12C)OO3 | 9.41 | 14.5 | 7.88
23 | CC(C)[C@@H](C)/C=C/[C@@H](C)[C@H]1CC[C@@H]2[C@]1(C)CC[C@H]1[C@]23C=C[C@]2(C[C@@H](OC(=O)CN4C(=O)S/C(=C/c5ccc(Br)cc5)C4=O)CC[C@]12C)OO3 | 12.3 | 17.8 | 9.5
24 | CC(C)[C@@H](C)/C=C/[C@@H](C)[C@H]1CC[C@@H]2[C@]1(C)CC[C@H]1[C@]23C=C[C@]2(C[C@@H](OC(=O)CN4C(=O)S/C(=C/c5ccc(Cl)cc5Cl)C4=O)CC[C@]12C)OO3 | 10.2 | 13.1 | 11
25 | CC(C)[C@@H](C)/C=C/[C@@H](C)[C@H]1CC[C@@H]2[C@]1(C)CC[C@H]1[C@]23C=C[C@]2(C[C@@H](OC(=O)CN4C(=O)S/C(=C/c5cccc6ccccc56)C4=O)CC[C@]12C)OO3 | 14.7 | 6.08 | 10.3
26 | CC(C)[C@@H](C)/C=C/[C@@H](C)[C@H]1CC[C@@H]2[C@]1(C)CC[C@H]1[C@]23C=C[C@]2(C[C@@H](OC(=O)N4CCN(C(=O)CN5C(=O)S/C(=C\c6ccc(Cl)cc6)C5=O)CC4)CC[C@]12C)OO3 | 8.94 | 9.58 | 5.94
27 | Cc1ccc(/C=C2\SC(=O)N(CC(=O)N3CCN(C(=O)O[C@H]4CC[C@]5(C)[C@H]6CC[C@]7(C)[C@@H]([C@H](C)/C=C/[C@H](C)C(C)C)CC[C@H]7[C@@]67C=C[C@]5(C4)OO7)CC3)C2=O)cc1 | 9.45 | 10.4 | 7.01
28 | CC(C)[C@@H](C)/C=C/[C@@H](C)[C@H]1CC[C@H]2C3=CC=C4C[C@@H](OC(=O)NCCNC(=O)CN5C(=O)S/C(=C\c6cccc7ccccc67)C5=O)CC[C@]4(C)[C@H]3CC[C@]12C | > 80 | > 80 | > 80
29 | CC(C)[C@@H](C)/C=C/[C@@H](C)[C@H]1CC[C@@H]2[C@]1(C)CC[C@H]1[C@]23C=C[C@]2(C[C@@H](OC(=O)CN4C(=O)S/C(=C/c5cccs5)C4=O)CC[C@]12C)OO3 | 16.6 | 17.3 | 7.4
30 | COc1cccc(/C=C2/SC(=O)N(CC(=O)O[C@H]3CC[C@]4(C)[C@H]5CC[C@]6(C)[C@@H]([C@H](C)/C=C/[C@H](C)C(C)C)CC[C@H]6[C@@]56C=C[C@]4(C3)OO6)C2=O)c1 | 17 | 15.3 | 10.8
31 | CC(C)[C@@H](C)/C=C/[C@@H](C)[C@H]1CC[C@@H]2[C@]1(C)CC[C@H]1[C@]23C=C[C@]2(C[C@@H](OC(=O)N4CCN(C(=O)CN5C(=O)S/C(=C\c6ccc(C(C)(C)C)cc6)C5=O)CC4)CC[C@]12C)OO3 | 14.4 | 19.5 | 11.6
32 | CC(C)[C@@H](C)/C=C/[C@@H](C)[C@H]1CC[C@@H]2[C@]1(C)CC[C@H]1[C@]23C=C[C@]2(C[C@@H](OC(=O)N4CCN(C(=O)CN5C(=O)S/C(=C\c6ccc(Cl)cc6Cl)C5=O)CC4)CC[C@]12C)OO3 | 12.9 | 15.6 | 11.7
33 | CC(C)[C@@H](C)/C=C/[C@@H](C)[C@H]1CC[C@@H]2[C@]1(C)CC[C@H]1[C@]23C=C[C@]2(C[C@@H](OC(=O)CN4C(=O)S/C(=C/c5ccc(Cl)cc5)C4=O)CC[C@]12C)OO3 | 9.92 | 13.5 | 9.18
